One experiment concerns FLT3. The settings on record: previously identified FLT3 inhibitor; read-out: IC50 against FLT3; cited from earlier work.
Experiment [1] deals with T1, ABL1(H396P)-phosphorylated (Homo sapiens, UniProt P00519, H396P).
T1 construct: purchased DiscoveRx KINOMEscan (Ambit Biosciences)
Nature of the experiment: KINOMEscan panel screen. The settings on record: read-out: Percent Control(%). In kind it is binding.

In experiment [2] the target is T2, ABL1(Y253F)-phosphorylated (Homo sapiens, UniProt P00519, Y253F).
T2 construct: purchased DiscoveRx KINOMEscan (Ambit Biosciences)
Put plainly: KINOMEscan panel screen. The class given is binding. The settings on record: read-out: Percent Control(%).

A further experiment deals with T3, AMPK-alpha2 (Homo sapiens, UniProt P54646).
T3 construct: purchased DiscoveRx KINOMEscan (Ambit Biosciences)
Put plainly: KINOMEscan panel screen. The settings on record: read-out: Percent Control(%). The class given is binding.

The target of the next experiment is T4, AURKB (Homo sapiens, UniProt Q96GD4).
T4 construct: purchased DiscoveRx KINOMEscan (Ambit Biosciences)
Put plainly: KINOMEscan panel screen. In kind it is binding. The settings on record: read-out: Percent Control(%).

The target in the next experiment is T5, BIKE (Homo sapiens, UniProt Q9NSY1).
T5 construct: purchased DiscoveRx KINOMEscan (Ambit Biosciences)
T5 sequence (Q9NSY1 whole entry): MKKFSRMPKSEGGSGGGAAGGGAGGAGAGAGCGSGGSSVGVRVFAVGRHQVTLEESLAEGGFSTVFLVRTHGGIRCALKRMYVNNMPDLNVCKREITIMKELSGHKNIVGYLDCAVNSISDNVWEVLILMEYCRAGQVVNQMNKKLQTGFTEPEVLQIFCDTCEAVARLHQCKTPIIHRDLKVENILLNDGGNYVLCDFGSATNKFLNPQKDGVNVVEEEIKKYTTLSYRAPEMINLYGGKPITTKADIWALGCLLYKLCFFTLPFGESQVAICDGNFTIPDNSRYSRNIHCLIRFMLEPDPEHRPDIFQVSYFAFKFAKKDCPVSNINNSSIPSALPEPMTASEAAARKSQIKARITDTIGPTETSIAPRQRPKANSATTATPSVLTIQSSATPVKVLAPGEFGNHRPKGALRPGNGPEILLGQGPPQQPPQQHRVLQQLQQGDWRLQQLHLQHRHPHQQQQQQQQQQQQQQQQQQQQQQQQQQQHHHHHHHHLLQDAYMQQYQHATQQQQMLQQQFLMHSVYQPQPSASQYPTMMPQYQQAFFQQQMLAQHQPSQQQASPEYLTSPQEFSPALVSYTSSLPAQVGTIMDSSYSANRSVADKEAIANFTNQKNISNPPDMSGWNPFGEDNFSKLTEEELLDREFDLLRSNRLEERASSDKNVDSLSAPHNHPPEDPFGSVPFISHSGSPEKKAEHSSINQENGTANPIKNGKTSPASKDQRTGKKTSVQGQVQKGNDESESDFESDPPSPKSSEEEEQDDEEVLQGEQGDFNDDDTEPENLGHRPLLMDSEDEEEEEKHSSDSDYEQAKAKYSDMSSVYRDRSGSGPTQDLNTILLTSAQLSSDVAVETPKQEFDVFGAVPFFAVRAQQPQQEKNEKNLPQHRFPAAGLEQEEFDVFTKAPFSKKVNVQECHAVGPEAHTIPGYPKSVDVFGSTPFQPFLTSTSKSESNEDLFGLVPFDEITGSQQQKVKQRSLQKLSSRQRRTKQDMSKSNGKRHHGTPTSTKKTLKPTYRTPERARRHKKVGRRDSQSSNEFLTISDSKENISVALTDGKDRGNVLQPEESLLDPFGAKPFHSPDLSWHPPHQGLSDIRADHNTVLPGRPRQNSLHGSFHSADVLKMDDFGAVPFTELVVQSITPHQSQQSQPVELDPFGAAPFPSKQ
Nature of the experiment: KINOMEscan panel screen. In kind it is binding. The settings on record: read-out: Percent Control(%).

In the next experiment the target is T6, CDK5 (Homo sapiens, UniProt Q00535).
T6 construct: purchased DiscoveRx KINOMEscan (Ambit Biosciences)
T6 sequence (Q00535 whole entry): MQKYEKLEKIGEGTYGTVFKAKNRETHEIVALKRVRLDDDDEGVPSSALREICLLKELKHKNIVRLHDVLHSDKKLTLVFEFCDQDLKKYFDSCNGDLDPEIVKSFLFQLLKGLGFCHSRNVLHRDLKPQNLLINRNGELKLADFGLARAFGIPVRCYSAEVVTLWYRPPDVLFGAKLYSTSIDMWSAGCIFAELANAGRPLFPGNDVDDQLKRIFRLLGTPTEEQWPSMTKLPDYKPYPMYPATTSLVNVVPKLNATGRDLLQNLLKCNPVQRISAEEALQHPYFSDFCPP
Nature of the experiment: KINOMEscan panel screen. The class given is binding. The settings on record: read-out: Percent Control(%).

Another experiment has as its target T7, CDKL5 (Homo sapiens, UniProt O76039).
T7 construct: purchased DiscoveRx KINOMEscan (Ambit Biosciences)
Put plainly: KINOMEscan panel screen. In kind it is binding. The settings on record: read-out: Percent Control(%).

A further experiment has as its target T8, DMPK (Homo sapiens, UniProt Q09013).
T8 construct: purchased DiscoveRx KINOMEscan (Ambit Biosciences)
T8 sequence (Q09013 1-629): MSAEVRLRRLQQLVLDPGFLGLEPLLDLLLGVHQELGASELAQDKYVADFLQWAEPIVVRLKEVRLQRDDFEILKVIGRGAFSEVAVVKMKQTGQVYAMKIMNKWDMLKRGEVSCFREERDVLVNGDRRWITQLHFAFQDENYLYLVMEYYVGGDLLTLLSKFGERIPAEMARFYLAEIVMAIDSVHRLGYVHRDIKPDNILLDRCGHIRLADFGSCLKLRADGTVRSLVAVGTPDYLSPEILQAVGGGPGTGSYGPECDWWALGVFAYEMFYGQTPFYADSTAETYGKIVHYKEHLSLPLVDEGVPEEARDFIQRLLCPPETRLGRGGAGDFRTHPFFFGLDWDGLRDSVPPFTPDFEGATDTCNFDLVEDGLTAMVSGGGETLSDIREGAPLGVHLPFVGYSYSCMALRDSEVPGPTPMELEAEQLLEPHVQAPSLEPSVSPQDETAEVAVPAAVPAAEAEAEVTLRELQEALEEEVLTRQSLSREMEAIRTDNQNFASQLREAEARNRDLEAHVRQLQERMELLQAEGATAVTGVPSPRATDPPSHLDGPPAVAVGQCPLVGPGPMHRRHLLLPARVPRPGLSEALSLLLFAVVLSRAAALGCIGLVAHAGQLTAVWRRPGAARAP
Nature of the experiment: KINOMEscan panel screen. The settings on record: read-out: Percent Control(%). The class given is binding.

Another experiment deals with T9, DYRK1B (Homo sapiens, UniProt Q9Y463).
T9 construct: purchased DiscoveRx KINOMEscan (Ambit Biosciences)
Nature of the experiment: KINOMEscan panel screen. In kind it is binding. The settings on record: read-out: Percent Control(%).

The target of the next experiment is T10, IRAK4 (Homo sapiens, UniProt Q9NWZ3).
T10 construct: purchased DiscoveRx KINOMEscan (Ambit Biosciences)
Nature of the experiment: KINOMEscan panel screen. The class given is binding. The settings on record: read-out: Percent Control(%).

Another experiment addresses LOK (Homo sapiens, UniProt O94804). Put plainly: KINOMEscan panel screen. In kind it is binding. The settings on record: read-out: Percent Control(%).
The next experiment deals with T11, MET (Homo sapiens, UniProt P08581).
T11 construct: purchased DiscoveRx KINOMEscan (Ambit Biosciences)
Nature of the experiment: KINOMEscan panel screen. In kind it is binding. The settings on record: read-out: Percent Control(%).

The next experiment has as its target T12, MKNK1 (Homo sapiens, UniProt Q9BUB5).
T12 construct: purchased DiscoveRx KINOMEscan (Ambit Biosciences)
Nature of the experiment: KINOMEscan panel screen. The class given is binding. The settings on record: read-out: Percent Control(%).

In the next experiment the target is T13, NEK5 (Homo sapiens, UniProt Q6P3R8).
T13 construct: purchased DiscoveRx KINOMEscan (Ambit Biosciences)
T13 sequence (Q6P3R8 whole entry): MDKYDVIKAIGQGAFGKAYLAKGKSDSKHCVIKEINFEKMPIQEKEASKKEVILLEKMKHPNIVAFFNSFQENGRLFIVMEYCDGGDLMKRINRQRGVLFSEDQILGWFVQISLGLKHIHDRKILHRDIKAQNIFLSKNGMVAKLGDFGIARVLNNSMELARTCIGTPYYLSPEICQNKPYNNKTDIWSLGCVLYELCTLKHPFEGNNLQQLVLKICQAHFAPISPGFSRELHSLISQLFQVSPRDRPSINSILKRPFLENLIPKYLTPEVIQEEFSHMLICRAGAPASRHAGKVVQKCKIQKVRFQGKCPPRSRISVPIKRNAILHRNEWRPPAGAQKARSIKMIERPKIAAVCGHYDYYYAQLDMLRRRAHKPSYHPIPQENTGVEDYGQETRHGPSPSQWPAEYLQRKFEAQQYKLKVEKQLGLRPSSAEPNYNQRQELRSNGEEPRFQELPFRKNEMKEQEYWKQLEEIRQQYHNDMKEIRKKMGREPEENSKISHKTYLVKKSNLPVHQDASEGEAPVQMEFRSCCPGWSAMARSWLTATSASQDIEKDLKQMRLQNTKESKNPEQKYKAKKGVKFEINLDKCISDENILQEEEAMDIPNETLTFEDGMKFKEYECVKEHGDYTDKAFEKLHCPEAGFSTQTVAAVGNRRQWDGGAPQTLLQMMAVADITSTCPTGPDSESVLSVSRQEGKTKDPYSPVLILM
Nature of the experiment: KINOMEscan panel screen. The settings on record: read-out: Percent Control(%). In kind it is binding.

The next experiment concerns the target T14, PCTK1 (Homo sapiens, UniProt Q00536).
T14 construct: purchased DiscoveRx KINOMEscan (Ambit Biosciences)
Put plainly: KINOMEscan panel screen. The settings on record: read-out: Percent Control(%). In kind it is binding.

In the next experiment the target is T15, PIK3CA(E545A) (Homo sapiens, UniProt P42336, E545A).
T15 construct: purchased DiscoveRx KINOMEscan (Ambit Biosciences)
Put plainly: KINOMEscan panel screen. The class given is binding. The settings on record: read-out: Percent Control(%).

A further experiment has as its target T16, PLK3 (Homo sapiens, UniProt Q9H4B4).
T16 construct: purchased DiscoveRx KINOMEscan (Ambit Biosciences)
Put plainly: KINOMEscan panel screen. In kind it is binding. The settings on record: read-out: Percent Control(%).

The next experiment concerns the target T17, SNARK (Homo sapiens, UniProt Q9H093).
T17 construct: purchased DiscoveRx KINOMEscan (Ambit Biosciences)
Nature of the experiment: KINOMEscan panel screen. In kind it is binding. The settings on record: read-out: Percent Control(%).

The target in a further experiment is T18, TESK1 (Homo sapiens, UniProt Q15569).
T18 construct: purchased DiscoveRx KINOMEscan (Ambit Biosciences)
T18 sequence (Q15569 whole entry): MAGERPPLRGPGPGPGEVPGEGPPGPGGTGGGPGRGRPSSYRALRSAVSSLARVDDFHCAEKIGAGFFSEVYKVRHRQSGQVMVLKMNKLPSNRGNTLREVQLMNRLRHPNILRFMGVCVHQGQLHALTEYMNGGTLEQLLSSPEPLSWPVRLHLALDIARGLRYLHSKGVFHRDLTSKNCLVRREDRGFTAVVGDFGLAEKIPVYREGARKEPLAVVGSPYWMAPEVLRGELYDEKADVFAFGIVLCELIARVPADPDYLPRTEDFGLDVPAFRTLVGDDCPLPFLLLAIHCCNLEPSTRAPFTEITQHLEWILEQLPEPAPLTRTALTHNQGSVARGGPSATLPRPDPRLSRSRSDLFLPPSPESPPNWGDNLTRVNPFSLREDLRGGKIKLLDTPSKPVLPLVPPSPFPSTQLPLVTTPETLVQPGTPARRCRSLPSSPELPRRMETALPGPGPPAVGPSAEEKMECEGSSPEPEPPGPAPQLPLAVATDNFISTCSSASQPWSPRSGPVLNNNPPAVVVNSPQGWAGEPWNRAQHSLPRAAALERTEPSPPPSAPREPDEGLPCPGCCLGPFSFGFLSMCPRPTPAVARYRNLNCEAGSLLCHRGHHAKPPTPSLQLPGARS
Nature of the experiment: KINOMEscan panel screen. In kind it is binding. The settings on record: read-out: Percent Control(%).

The target of a further experiment is T19, ULK3 (Homo sapiens, UniProt Q6PHR2).
T19 construct: purchased DiscoveRx KINOMEscan (Ambit Biosciences)
T19 sequence (Q6PHR2 whole entry): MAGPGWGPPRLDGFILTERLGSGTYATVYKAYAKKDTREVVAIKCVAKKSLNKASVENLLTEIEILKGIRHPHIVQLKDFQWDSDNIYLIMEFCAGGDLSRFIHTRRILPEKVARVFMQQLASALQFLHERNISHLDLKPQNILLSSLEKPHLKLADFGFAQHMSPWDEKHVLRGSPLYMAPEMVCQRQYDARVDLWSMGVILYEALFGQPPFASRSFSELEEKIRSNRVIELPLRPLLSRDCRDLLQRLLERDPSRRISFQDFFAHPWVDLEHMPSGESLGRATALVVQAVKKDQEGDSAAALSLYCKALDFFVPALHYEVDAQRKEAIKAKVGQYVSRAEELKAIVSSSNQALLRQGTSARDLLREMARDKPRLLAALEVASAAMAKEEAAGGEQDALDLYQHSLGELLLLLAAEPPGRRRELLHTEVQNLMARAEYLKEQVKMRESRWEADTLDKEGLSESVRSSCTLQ
Put plainly: KINOMEscan panel screen. The settings on record: read-out: Percent Control(%). In kind it is binding.

A further experiment addresses T20, WEE1 (Homo sapiens, UniProt P30291).
T20 construct: purchased DiscoveRx KINOMEscan (Ambit Biosciences)
Put plainly: KINOMEscan panel screen. In kind it is binding. The settings on record: read-out: Percent Control(%).

Another experiment addresses T21, WNK3 (Homo sapiens, UniProt Q9BYP7).
T21 construct: purchased DiscoveRx KINOMEscan (Ambit Biosciences)
Nature of the experiment: KINOMEscan panel screen. In kind it is binding. The settings on record: read-out: Percent Control(%).

The next experiment has as its target T22, YANK2 (Homo sapiens, UniProt Q9NY57).
T22 construct: purchased DiscoveRx KINOMEscan (Ambit Biosciences)
Nature of the experiment: KINOMEscan panel screen. The class given is binding. The settings on record: read-out: Percent Control(%).

For another experiment, the target named is T23, TIE2 (Homo sapiens, UniProt Q02763).
T23 construct: purchased DiscoveRx KINOMEscan (Ambit Biosciences)
Nature of the experiment: KINOMEscan kinase binding assay (Kd).

Experiment [3] deals with phosphorylation of FLT3, STAT5 and Erk1/2 in MV4-11 cells. Put plainly: Western blot of FLT3 signaling in MV4-11 cells. The settings on record: 1 h treatment. In kind it is cell-based, human. In general terms: Immunoblotting shows a protein as a band on a membrane.
Protocol: Western blot analysis was performed as previously described[43]. […] Quantitative analysis of the protein level was performed with NIH image analysis software, ImageJ (normalized relative to the vehicle control).
The phosphorylation levels of FLT3 and downstream signal proteins were detected used the same method as that in panel a.

Here are results for two molecules from publication PMC4620497 (Scientific Reports, 2015).

T16 sequence (Q9H4B4 whole entry): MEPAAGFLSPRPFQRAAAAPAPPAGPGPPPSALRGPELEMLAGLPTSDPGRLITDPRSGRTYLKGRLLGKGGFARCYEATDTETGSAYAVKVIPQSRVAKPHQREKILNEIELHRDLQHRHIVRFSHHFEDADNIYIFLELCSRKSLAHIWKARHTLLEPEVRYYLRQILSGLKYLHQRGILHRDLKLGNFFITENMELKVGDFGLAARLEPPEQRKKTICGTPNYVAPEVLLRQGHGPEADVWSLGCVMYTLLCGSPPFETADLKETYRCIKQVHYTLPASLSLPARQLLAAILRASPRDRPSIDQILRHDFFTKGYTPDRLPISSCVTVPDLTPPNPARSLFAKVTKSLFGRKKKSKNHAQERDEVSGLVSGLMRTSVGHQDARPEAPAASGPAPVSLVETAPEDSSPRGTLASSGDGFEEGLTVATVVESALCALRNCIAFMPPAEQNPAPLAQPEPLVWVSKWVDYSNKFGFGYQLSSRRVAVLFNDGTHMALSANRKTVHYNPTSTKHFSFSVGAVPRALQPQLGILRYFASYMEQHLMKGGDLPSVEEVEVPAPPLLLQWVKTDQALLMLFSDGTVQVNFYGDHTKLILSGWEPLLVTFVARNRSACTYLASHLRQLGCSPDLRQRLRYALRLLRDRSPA
T14 sequence (Q00536 whole entry): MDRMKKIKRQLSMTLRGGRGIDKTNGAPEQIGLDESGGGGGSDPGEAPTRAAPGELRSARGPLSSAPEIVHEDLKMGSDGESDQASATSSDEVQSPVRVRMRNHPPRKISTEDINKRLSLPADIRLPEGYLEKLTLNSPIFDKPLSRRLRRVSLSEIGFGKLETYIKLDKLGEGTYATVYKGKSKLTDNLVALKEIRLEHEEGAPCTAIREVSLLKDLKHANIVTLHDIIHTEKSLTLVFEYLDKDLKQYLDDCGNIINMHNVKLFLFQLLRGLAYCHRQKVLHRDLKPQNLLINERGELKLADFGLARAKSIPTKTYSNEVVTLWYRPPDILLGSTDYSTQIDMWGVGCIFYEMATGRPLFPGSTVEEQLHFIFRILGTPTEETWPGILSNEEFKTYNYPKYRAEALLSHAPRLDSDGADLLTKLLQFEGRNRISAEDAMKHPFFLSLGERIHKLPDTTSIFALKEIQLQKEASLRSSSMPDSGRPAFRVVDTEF
T17 sequence (Q9H093 whole entry): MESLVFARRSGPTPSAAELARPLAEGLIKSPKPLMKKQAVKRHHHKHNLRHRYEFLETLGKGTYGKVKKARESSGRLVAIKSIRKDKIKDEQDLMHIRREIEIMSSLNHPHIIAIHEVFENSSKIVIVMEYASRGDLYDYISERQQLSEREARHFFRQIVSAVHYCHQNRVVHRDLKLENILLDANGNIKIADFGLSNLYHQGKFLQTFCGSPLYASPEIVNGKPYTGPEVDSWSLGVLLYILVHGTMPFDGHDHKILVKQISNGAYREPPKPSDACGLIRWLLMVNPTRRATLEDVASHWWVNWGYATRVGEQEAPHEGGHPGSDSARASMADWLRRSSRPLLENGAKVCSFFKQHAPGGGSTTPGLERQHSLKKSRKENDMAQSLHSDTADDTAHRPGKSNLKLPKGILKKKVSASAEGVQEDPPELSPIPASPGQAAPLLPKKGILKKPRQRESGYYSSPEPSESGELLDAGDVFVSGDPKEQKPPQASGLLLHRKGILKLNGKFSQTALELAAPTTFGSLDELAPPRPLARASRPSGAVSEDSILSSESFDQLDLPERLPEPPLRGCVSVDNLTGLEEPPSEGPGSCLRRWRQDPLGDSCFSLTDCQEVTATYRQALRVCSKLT

Usually IC50 stands for the midpoint of a concentration-inhibition curve. In the case of `O=C(Nc1ccc(Oc2ncnc3[nH]ncc23)cc1)Nc1ccc(Cl)c(C(F)(F)F)c1` [Compound 1, 1-(4-(1H-pyrazolo[3,4-d]pyrimidin-4-yloxy)phenyl)-3-(4-chloro-3-(trifluoromethyl)phenyl)urea], in the experiment on FLT3, the IC50 was 39 nM.
By Kd is commonly meant the equilibrium constant for the complex coming apart. On to `CC(C)(C)c1cc(NC(=O)Nc2ccc(Oc3ncnc4[nH]ncc34)c(F)c2)no1` [SKLB-677, 1-(4-(1H-pyrazolo[3,4-d]pyrimidin-4-yloxy)-3-fluorophenyl)-3-(5-tert-butylisoxazol-3-yl)urea], for which the remaining binding at 10 µM was found to be 11% in experiment [1]; 10% in experiment [2]; 7.8% on AMPK-alpha2; 2.6% at AURKB; 89% on BIKE; 4.2% at CDK5. The remaining binding at 10 µM was found to be 5% at CDKL5; 100% on DMPK; 41% at DYRK1B; 100% at IRAK4; 0% on LOK; 0.05% on MET. In addition, the remaining binding at 10 µM on MKNK1 was 0.1%; at NEK5 it was 9.8%; on PCTK1, 0.2%; on PIK3CA(E545A), 86%; on PLK3 it was 100%; on SNARK it was 66%. Further, the remaining binding at 10 µM on TESK1 stood at 82%; on ULK3, 51%; at WEE1, 64%; at WNK3, 100%; at YANK2 it was 50%. This molecule also yielded a dissociation constant Kd on TIE2 of 99 nM. Moreover, in experiment [3], the “concentration at which activation of STAT5 and Erk1/2 was efficiently inhibited” value is reported as “higher than 1 nM”. For the same molecule, the half-maximal inhibitory concentration (IC50) in [3] (Homo sapiens, read-out: IC50, reduction in the phosphorylation level of FLT3) was ~0.1 nM.
